Literature values as cited in patent US20060204571A1, “Stable compositions of bupropion or its pharmaceutically acceptable salts” (Sun Pharmaceutical Industries Limited, priority 2005, published 2006).

Settings: background statement

CC(NC(C)(C)C)C(=O)c1cccc(Cl)c1.Cl (racemic) [Bupropion hydrochloride, (±)-1-(3-chlorophenyl)-2-[(1,1-dimethylethyl)amino]-1-propanone hydrochloride]
solubility in water (in words): water-soluble
